Measurements published in PubChem BioAssay (NCI).
Where “and” joins values, the source holds several entries; their conditions need not be identical. Identical values can stand only once.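 Test compounds were applied to cells in 96-well plates for 48 hours at 5 doses. At the GI50, growth is halved. TGI: concentration producing complete growth inhibition.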

Columns and labels:
Assay in all cases: NCI tumour cell line growth inhibition, 48 h
786-0 renal = test system: 786-0 renal
CCRF-CEM leukemia = test system: CCRF-CEM leukemia
IGROV1 ovarian = test system: IGROV1 ovarian
OVCAR-4 ovarian = test system: OVCAR-4 ovarian
RXF 393 renal = test system: RXF 393 renal
SF-268 CNS = test system: SF-268 CNS
SNB-19 CNS = test system: SNB-19 CNS
K-562 leukemia = test system: K-562 leukemia
LOX IMVI melanoma = test system: LOX IMVI melanoma
SNB-75 CNS = test system: SNB-75 CNS

Structure (SMILES) | TGI (786-0 renal) [µM] | TGI (CCRF-CEM leukemia) | TGI (IGROV1 ovarian) [µM] | TGI (OVCAR-4 ovarian) | TGI (RXF 393 renal) | TGI (SF-268 CNS) | TGI (SNB-19 CNS) | TGI (K-562 leukemia) [µM] | TGI (LOX IMVI melanoma) [µM] | TGI (SNB-75 CNS) [µM] | GI50 (786-0 renal) [µM] | GI50 (CCRF-CEM leukemia) [µM] | GI50 (IGROV1 ovarian) [µM] | GI50 (K-562 leukemia) [µM] | GI50 (LOX IMVI melanoma) [µM] | GI50 (RXF 393 renal) [µM] | GI50 (SF-268 CNS) [µM] | GI50 (SNB-19 CNS) [µM] | GI50 (SNB-75 CNS) [µM] | GI50 (OVCAR-4 ovarian) [µM]
CNS(=O)(=O)NN(C)S(=O)(=O)c1ccc(C)cc1 | > 100 | > 100 µM | > 100 | > 100 µM | > 100 µM | > 100 µM | > 100 µM | – | – | – | – | – | – | – | – | – | – | – | – | –
COc1cc(-c2[nH]ncc2CCCC(=O)Nc2ccccc2[N+](=O)[O-])ccc1O | > 100 | > 100 µM | > 100 | > 100 µM | – | > 100 µM | – | > 100 | > 100 | > 100 | – | – | – | – | – | – | – | – | – | –
COc1ccc(Nc2nc3c(N)cc(C(F)(F)F)cc3nc2-c2ccccc2)cc1 | > 100 | > 100 µM | > 100 | > 100 µM | 68.2 µM | > 100 µM | > 100 µM | > 100 | > 100 | 82.2 | – | – | – | – | – | – | – | – | – | –
C=C1CCC2C3(C)COC(c4cccc(Cl)c4)OC3CCC2(C)C1/C=C/C1=CCOC1=O (centres undefined) | > 100 | > 100 µM | > 100 | – | > 100 µM | > 100 µM | > 100 µM | > 100 | > 100 | > 100 | > 100 | 7.51 | > 100 | 2.8 | 2.72 | > 100 | > 100 | > 100 | 6.46 | –
O=[N+]([O-])c1ccc([I+]c2ccccc2)cc1 | – | > 100 µM and 10.9 µM | 35.3 | 11.9 µM and 3.69 µM | 10.8 µM and 3.76 µM | 13.1 µM and 3.11 µM | 9.99 µM and 3.03 µM | > 53.2 | 1.99 | 3.28 | 1.78 | 3.21 | – | – | 0.583 | 1.87 | 1.65 | 1.63 | 1.66 | 1.67
COc1ccccc1NS(=O)(=O)c1cc(C(C)(C)C)ccc1OCCOc1ccc(C(C)(C)C)cc1S(=O)(=O)Nc1ccccc1OC | > 100 | > 100 µM | > 100 | > 100 µM | > 100 µM | > 100 µM | > 100 µM | > 100 | > 100 | > 100 | – | – | – | – | – | – | – | – | – | –
CCCCCNC(=O)C1C(=O)N(CCCCC)C(=O)/C1=N\N (centres undefined) | > 100 | > 100 µM | > 100 | > 100 µM | – | > 100 µM | > 100 µM | > 100 | – | – | – | – | – | – | – | – | – | – | – | –
COc1ccc(C(=O)Nc2ccccc2)cc1[N+](=O)[O-] | > 100 | > 100 µM | > 100 | – | > 100 µM | > 100 µM | > 100 µM | > 100 | > 100 | > 100 | – | – | – | – | – | – | – | – | – | –
Nc1ncn([C@@H]2C=C(CO)C(O)C2O)c(=O)n1 (some centres undefined) | > 100 | > 100 µM | > 100 | > 100 µM | – | > 100 µM | > 100 µM | > 100 | > 100 | – | – | – | – | – | – | – | – | – | – | –
Cc1ccc(S(=O)(=O)OC(C=O)C(O)C(O)COC(c2ccccc2)(c2ccccc2)c2ccccc2)cc1 (centres undefined) | 27.3 | – | 29.5 | 32.8 µM | 30.3 µM | 35.2 µM | 31.7 µM | 35 | 35.2 | 29.4 | – | – | – | – | – | – | – | – | – | –
COc1cc2nc(-c3ccc(Cl)cc3)cc(OCCCN3CCC(O)CC3)c2cc1OC | 14.9 | 10.4 µM | 14.9 | > 100 µM | 4.07 µM | 19.6 µM | 16.9 µM | 6.75 | 0.589 | 5.43 | 3.31 | 2.65 | 0.923 | 1.63 | 0.227 | 1.22 | 3.36 | 3.19 | 1.76 | 4.34
CCOc1ccc(NC(=O)/C(=C/c2ccccc2)C(C)=O)cc1 | 24.8 | 10.5 µM | 29.1 | 27.5 µM | 19 µM | 30.7 µM | 24.9 µM | 41.4 | 25.2 | 17.9 | – | – | – | – | – | – | – | – | – | –
Cc1ccc(NC(=O)CCC(=O)C2CC(=O)CCC2=O)cc1C (centres undefined) | > 100 | > 100 µM | > 100 | > 100 µM | > 100 µM | > 100 µM | > 100 µM | > 100 | > 100 | – | – | – | – | – | – | – | – | – | – | –
COC(=O)CC(CC(=O)C(=O)OC)C(=O)OC (centres undefined) | > 100 | > 100 µM | > 100 | – | > 100 µM | – | > 100 µM | > 100 | > 100 | > 100 | – | – | – | – | – | – | – | – | – | –
CC1(C)CC(C2CC(C)(C)CC(C)(C)[C@H]2O)[C@@H](O)C(C)(C)C1 (some centres undefined) | > 100 | > 100 µM | > 100 | – | – | > 100 µM | > 100 µM | > 100 | > 100 | – | – | – | – | – | – | – | – | – | – | –
Cn1cccc1C1CC(=O)N(CCC[Se]C#N)C1=O (centres undefined) | 3.44 | 7.66 µM | 4.68 | 14 µM | 3.43 µM | 3.92 µM | 3.08 µM | 29.9 | 4.28 | – | 1.95 | 2.22 | 1.86 | 3.2 | 1.88 | 1.74 | 1.92 | 1.62 | – | 2.35
COC1C2c3ccccc3C(C#N)(Cc3ccc4c(c32)OCO4)N1C(=O)c1ccccc1 (centres undefined) | > 100 | > 100 µM | > 100 | – | > 100 µM | > 100 µM | > 100 µM | > 100 | > 100 | > 100 | – | – | – | – | – | – | – | – | – | –
O=C1/C(=C/c2ccccc2Cl)COc2ccccc21 | 28.5 | 33.7 µM | 35.6 | – | 28.9 µM | 34.1 µM | – | 29.7 | 35.8 | 32.1 | – | – | – | – | – | – | – | – | – | –
COC(=O)C1(C)CCc2c(ccc3ccccc23)C1=O (centres undefined) | > 100 | > 100 µM | 95.7 | – | 67.5 µM | > 100 µM | > 100 µM | > 100 | > 100 | > 100 | – | – | – | – | – | – | – | – | – | –
NC(=NCc1ccccc1)N/N=C\c1ccnc2ccccc12 | 29.9 | 76.3 µM | – | 33 µM | – | 28.6 µM | 36.9 µM | 24.2 | 28.5 | 21.5 | – | – | – | – | – | – | – | – | – | –
